Data published in ChEMBL document CHEMBL4266031, “Total Synthesis of Violaceoid A and (-)- and (+)-Violaceoid B” (2018).

Columns and labels:
[1] = tested on: MCF7; assay: Antiproliferative activity against human MCF7 cells after 48 hrs by WST8 assay; format: functional; settings: for GI50: MCF7, 48 h
[2] = tested on: Hs-578T; assay: Antiproliferative activity against human Hs 578T cells after 48 hrs by WST8 assay; format: functional

Row | GI50 [1] [µM] | SMILES | Activity [1] | Activity [2] | GI50 [2] [µM]
1 | 61.5 | CCCCC/C=C/c1c(O)ccc(O)c1CO | Dose-dependent effect | Dose-dependent effect | 59.7
2 | > 100 | CCCCCC[C@H](O)c1c(O)ccc(O)c1CO | – | – | > 100
3 | > 100 | CCCCCC[C@@H](O)c1c(O)ccc(O)c1CO | – | – | > 100
